How the values were obtained:
OVCAR-3 xenograft tumors = test: NIR fluorescence imaging / biodistribution in OVCAR-3 s.c. xenograft models; format: in vivo, NSG mice; settings: for tumor-to-background ratio (TBR): OVCAR-3 s.c. NSG mice, 100 µL of 500 µM i.v., after 24 h; for clearance pattern (organ): ex vivo NIR FLI 6 h after 500 µM i.v., OVCAR-3 mice
Description: To assess the capacity of both conjugates to visualize ovarian xenograft tumors “in vivo” and evaluate accumulation and clearance behavior of the conjugates, kinetic imaging was performed at six different time-points. Subcutaneously engrafted OVCAR-3 NSG mice were injected with 100 µL of 500 µM RR11 or 23 (MSA14) intravenously into the tail vein (Figure 3). […] Tumor-specific fluorescence was obtained 4, 6, and 24 h after RR11 injection, with a mean tumor-to-background ratio (TBR) of 1.74 after 24 h. In OVCAR-3 bearing NSG mice (n = 3), injected with 23 (MSA14), high liver signals (ventral view, #) were obtained at all time points with high compound accumulation in the tumors at 24 h (*, Figure 3B). The best TBR of 1.44 was achieved after 24 h. Residual background fluorescence was predominantly observed in the spine and limbs as well as in the excretion organs.
Following the biodistribution over time “in vivo”, we assessed the accumulation of the compounds “ex vivo” at 6 h. In Figure 4A, RR11-induced tumor-specific signal, along with high fluorescence in kidneys, gallbladder, stomach, and lungs, can be observed. […] The higher gastrointestinal fluorescence signal in RR11-imaged mice can derive from auto-fluorescent alfalfa containing diet, which is acquired in the lower wavelength of RR11. The main differences between the accumulation and clearance behavior are marked with an arrow, indicating two different clearance patterns of the compounds through liver (23, MSA14) and kidney (RR11). Finally, the fluorescence of 23 (MSA14) was evaluated in a clinically compatible intraoperative setting using the FLARE® system to assess the suitability of the COX-1 targeted NIR compound for FIGS and its potential clinical translation (Figure 4B). The “in vivo” and “ex vivo” intraoperative images confirm the results from Figure 3B and Figure 4A. […] While the tumor fluorescence intensities were higher than those of kidneys, the fluorescence intensities in the gallbladder and lungs were the highest.
Female NOD-scid IL2rγ^null (NSG) mice, aged 6 to 25 weeks were maintained under defined floral conditions and no more than five mice were housed in individually ventilated (HEPA-filtered air) cages, kept on a 12 h dark/night schedule at a constant temperature of 21 °C and at 50% relative humidity at the University of Bergen’s animal facility. Observations of body weight and general condition including activity levels, appearance, and food intake were monitored twice weekly, and humane endpoints were defined with the use of score sheets. When indicated, animals were euthanized according to institutional guidelines. […]

COX-1 = target: T1, COX-1 (Ovis aries, UniProt P05979); test: COX-1 inhibition, COX (ovine/human) inhibitor screening assay kit; format: biochemical
T1 construct: purchased Cayman Chemicals (bought through Sigma-Aldrich) 560131
T1 sequence (P05979 25-600): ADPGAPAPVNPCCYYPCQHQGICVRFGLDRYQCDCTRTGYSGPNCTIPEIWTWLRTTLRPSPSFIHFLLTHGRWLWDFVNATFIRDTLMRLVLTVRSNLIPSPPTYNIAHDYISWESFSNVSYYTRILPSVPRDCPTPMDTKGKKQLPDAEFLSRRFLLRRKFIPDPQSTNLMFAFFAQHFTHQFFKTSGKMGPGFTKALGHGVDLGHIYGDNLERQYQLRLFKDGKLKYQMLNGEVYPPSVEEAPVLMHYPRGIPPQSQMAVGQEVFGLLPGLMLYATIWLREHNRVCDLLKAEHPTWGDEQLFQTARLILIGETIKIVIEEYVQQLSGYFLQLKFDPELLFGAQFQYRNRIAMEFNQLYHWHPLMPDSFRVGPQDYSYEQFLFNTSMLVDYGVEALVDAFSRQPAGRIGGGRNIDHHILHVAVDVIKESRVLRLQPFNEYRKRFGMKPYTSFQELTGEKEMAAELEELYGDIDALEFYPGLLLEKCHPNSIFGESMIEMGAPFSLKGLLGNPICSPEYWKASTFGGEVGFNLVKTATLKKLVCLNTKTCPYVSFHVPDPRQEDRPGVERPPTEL
Description: Cell culture reagents were purchased from Euroclone (Milan, Italy). COX (ovine/human) inhibitor screening assay kit (Catalog No. 560131, Cayman Chemicals, Ann Arbor, MI, USA) was purchased from Sigma-Aldrich, Burlington, MA, USA. […] The other reagents were purchased from Sigma-Aldrich, Burlington, MA, USA.
The COX-1/2 inhibition screening experiments were carried out according to the manufacturer’s instructions. The plate was incubated for 60 min at r.t. under shaking and read with the Tecan Infinite 200 Microplate Reader at λ = 405 nm.
The graph between percent inhibition of the enzyme and corresponding concentration of the compound provided IC50 values for the probe compounds.

Compound | tumor-to-background ratio (TBR) (OVCAR-3 xenograft tumors) | clearance pattern (organ) (OVCAR-3 xenograft tumors) | IC50 (COX-1) [nM] | SI (selectivity index) (COX-1) | COX-1 % inhib. (COX-1; at 50 µM compound final concentration) [%] | inhibition at 50 µM (COX-1; at 50 µM compound final concentration, read-out: COX-1 % inhib.) [%]
COc1ccc(-c2noc(CC(=O)NCCCCNc3cc4[o+]c5cc(N(C)C)ccc5nc4c4ccccc34)c2-c2ccc(OC)cc2)cc1.[Cl-] [RR11, N-[4-(9-dimethylimino-9H-benzo[a]phenoxazin-5-ylamino)butyl]-2-(3,4-bis(4-methoxyphenyl)isoxazol-5-yl)acetamide chloride, reference compound] | 1.74 | kidney | 32 | 75 | 83 | 
CCN1/C(=C/C=C/C=C/C=C/C2=[N+](CCCCCC(=O)NCCCCNC(=O)Cc3onc(-c4ccc(OC)cc4)c3-c3ccc(OC)cc3)c3ccc4ccccc4c3C2(C)C)C(C)(C)c2c1ccc1ccccc21 [23 (MSA14), 3-(6-(4-(2-(3,4-Bis(4-methoxyphenyl)isoxazole-5-yl)acetamido)butyl)amino-6-oxohexyl)-2-[7-(1,3-dihydro-1,1-dimethyl-3-ethyl-2H-benz[e]indolin-2-yl-idene)-1,3,5-heptatrienyl]-1,1-dimethyl-3-(6-carboxilato-hexyl)-1H-benz[e]indolium chloride] | 1.44 | liver | 87 |  |  | 57

From paper PMC9230671, “Fluorochrome Selection for Imaging Intraoperative Ovarian Cancer Probes” (Pharmaceuticals, 2022)
